Test results taken from the NIST ThermoML archive (doi:10.1021/je300603d).

Legend:
[1] = 101 kPa, Liquid; for electrical conductivity: Alternating current cell with electrodes; for viscosity: Falling or rolling sphere viscometry; for mass density: Vibrating tube method
[2] = mn = molality of the nth substance listed, in mol/kg; conditions: 101 kPa, Liquid, m2 = 0; for electrical conductivity: Alternating current cell with electrodes; for viscosity: Falling or rolling sphere viscometry; for mass density: Vibrating tube method

CCCCn1cc[n+](C)c1.F[B-](F)(F)F [1-butyl-3-methylimidazolium tetrafluoroborate]
[1]
Conditions	electrical conductivity [S/m]	mass density [kg/m3]	viscosity [mPa·s]
238.15 K	0.00095	–	–
258.15 K	0.0227	–	–
278.15 K	0.113	1216.3	384.5
288.15 K	–	1209	197.7
298.15 K	0.353	1201.8	112.3
308.15 K	–	1194.6	68.89
318.15 K	0.826	1187.6	45.36
328.15 K	–	1180.6	31.49
338.15 K	1.548	1173.6	21.99
348.15 K	–	1166.7	16.54
358.15 K	2.53	1159.9	12.84
378.15 K	3.74	–	–
398.15 K	5.13	–	–
418.15 K	6.68	–	–
438.15 K	8.36	–	–
458.15 K	10.13	–	–

CCCCn1cc[n+](C)c1.F[B-](F)(F)F [1-butyl-3-methylimidazolium tetrafluoroborate] + F[B-](F)(F)F.[Na+]
[2]
Conditions	electrical conductivity [S/m]	mass density [kg/m3]	viscosity [mPa·s]
238.15 K	0.00095	–	–
258.15 K	0.0227	–	–
278.15 K	0.113	1216.3	384.5
288.15 K	–	1209	197.7
298.15 K	0.353	1201.8	112.3
308.15 K	–	1194.6	68.89
318.15 K	0.826	1187.6	45.36
328.15 K	–	1180.6	31.49
338.15 K	1.548	1173.6	21.99
348.15 K	–	1166.7	16.54
358.15 K	2.53	1159.9	12.84
378.15 K	3.74	–	–
398.15 K	5.13	–	–
418.15 K	6.68	–	–
438.15 K	8.36	–	–
458.15 K	10.13	–	–
